The values that follow come from patent publication US20210263122A1, “RATIOMETRIC PULSED CEST IMAGING” (BRACCO IMAGING S.P.A., priority 2015, published 2021).

Molecules are shown by their SMILES.

For data set [1] the following is noted: 7.05 T, 310 K, pH 7.4; cited from earlier work.
A short description of data set [2]: Chemical exchange rate (kex) of amide protons from 1H-NMR linewidth. Format: physicochemical. How it is done:
High-resolution 1H-NMR spectra were recorded on a Bruker Avance 600 spectrometer (Bruker BioSpin Rheinstetten, Germany) operating at 14 T (corresponding to a proton Larmor frequency of 600.13 MHz) equipped with a Z-gradient 5 mm inverse probe. Sample temperature control was monitored within +/−0.1 K by means of the BTO2000 variable temperature unit. 1H NMR spectra to measure the linewidth of exchangeable protons were obtained by means of a pulse sequence using water suppression by excitation sculpting with gradients (T. L. Hwang, A. J. Shaka Water Suppression That Works. Excitation Sculpting Using Arbitrary Wave-Forms and Pulsed-Field Gradients, J. Magn. Reson. Ser. A, 1995, 112(3), 275-279). The carrier frequency was carefully set on resonance to the water signal. Simple “excite-detect” acquisitions (typical parameters: 16 ppm spectral window, 32 k complex data points, 3 s relaxation delay, and 64 averaged FIDs) were carried out to measure the linewidths of the exchangeable amide protons at 310 K. In vitro studies were performed by preparing 30 mM solutions of Iodixanol in aqueous phosphate buffer solution (10 mM), with the pH adjusted within the 5.5-7.4 range by addition of aliquots of HCl/NaOH. Capillaries containing the solutions were transferred into a 5 mm NMR tube filled with D2O for field-frequency lock.
Exchange rate values analogously assessed in the pH range of from 5.4 to 7.9 for some radiographic contrast agents according to the invention are provided in the following Table 3.

`C[C@H](O)C(=O)Nc1c(I)c(C(=O)NC(CO)CO)c(I)c(C(=O)NC(CO)CO)c1I` [Iopamidol]: in data set [1], the “averaged Kex exchange rate of amide mobile protons” value is reported as “about 2560 s^−1”.
Turning to `CC(=O)N(CC(O)CN(C(C)=O)c1c(I)c(C(=O)NCC(O)CO)c(I)c(C(=O)NCC(O)CO)c1I)c1c(I)c(C(=O)NCC(O)CO)c(I)c(C(=O)NCC(O)CO)c1I` (stereo not drawn) [Iodixanol], the Kex in data set [2] (pH 5.5, 310K) was found to be 32 s⁻¹; in data set [2] (pH 6.0, 310K), 51 s⁻¹; in data set [2] (pH 6.3, 310K), 80 s⁻¹; in data set [2] (pH 6.7, 310K), 179 s⁻¹; in data set [2] (pH 7.0, 310K), 476 s⁻¹; in data set [2] (pH 7.4, 310K) it was 1213 s⁻¹. Also, the Kex is 1332 s⁻¹ in data set [2] (pH 7.9, 310K) and “exceeds 200 Hz” in data set [2] (physiological conditions, Example 1).
With `CC(=O)N(CC(O)CO)c1c(I)c(C(=O)NCC(O)CO)c(I)c(C(=O)NCC(O)CO)c1I` (stereo not drawn) [Iohexol], the Kex in data set [2] (pH 5.5, 310K) worked out at 22 s⁻¹; in data set [2] (pH 6.0, 310K) it was 69 s⁻¹; in data set [2] (pH 6.3, 310K), 139 s⁻¹; in data set [2] (pH 6.7, 310K) it was 372 s⁻¹; in data set [2] (pH 7.0, 310K) it was 923 s⁻¹; in data set [2] (pH 7.4, 310K), 1609 s⁻¹. Moreover, the Kex in data set [2] (pH 7.9, 310K) amounted to 4056 s⁻¹.
As to `O=C(NCC(O)CO)c1c(I)c(C(=O)NCC(O)CO)c(I)c(N(CCO)C(=O)CO)c1I` (stereo not drawn) [Ioversol], the Kex is 22 s⁻¹ in data set [2] (pH 5.5, 310K); 66 s⁻¹ in data set [2] (pH 6.0, 310K); 118 s⁻¹ in data set [2] (pH 6.3, 310K); 292 s⁻¹ in data set [2] (pH 6.7, 310K); 913 s⁻¹ in data set [2] (pH 7.0, 310K); 1628 s⁻¹ in data set [2] (pH 7.4, 310K). In data set [2] (pH 7.9, 310K), this compound returned a Kex of 3660 s⁻¹.
`CN(C(=O)CO)c1c(I)c(C(=O)NCC(O)CO)c(I)c(C(=O)NCC(O)CO)c1I` (stereo not drawn) [Iomeprol]: the Kex was determined as 30 s⁻¹ in data set [2] (pH 5.5, 310K); 88 s⁻¹ in data set [2] (pH 6.0, 310K); 164 s⁻¹ in data set [2] (pH 6.3, 310K); 430 s⁻¹ in data set [2] (pH 6.7, 310K); 794 s⁻¹ in data set [2] (pH 7.0, 310K); 1831 s⁻¹ in data set [2] (pH 7.4, 310K). The Kex in data set [2] (pH 7.9, 310K) stood at 4389 s⁻¹.
